Assay: copper-free click conjugation kinetics with DBCO-PEG
Type: physicochemical
Conditions: 10-fold molar excess DBCO-PEG; 25° C., ionic strength 0.5 M (KCl), 0.005% Tween-20, phosphate buffer
Description: The small molecule conjugation kinetics of pAzF and pAMF were compared. In particular, pAzF and pAMF were reacted at increasing concentrations with a 10-fold molar excess of dibenzocyclooctyl-polyethylene glycol (DBCO-PEG) compound (FIG. 2A and FIG. 2C) in a copper-free click reaction. First-order kinetics at 25° C., ionic strength 0.5 M (KCl), and 0.005% Tween-20 in phosphate buffer were determined under pseudo-first-order conditions in triplicate, using a SpectraMax M5 plate reader with 96-well polystyrene plates (Molecular Devices, Sunnyvale, Calif.). The formation of conjugated product was measured by the decrease in absorbance of the strained cyclooctoalkyne DBCO at 306 nm in the presence of increasing concentrations of pAzF or pAMF. The second-order rate constants were calculated according to kcat (M−1 sec-1)=kobs/[Azido].

[N-]=[N+]=NCc1ccc(C[C@H](N)C(=O)O)cc1 [pAMF, para-azidomethyl-L-phenylalanine]
reaction rate relative to pAzF: seven-fold higher
